Laboratory results reported in US11001590B2, “Pyrazolopyrimidine derivatives” (BAYER ANIMAL HEALTH GMBH, priority 2016, dated 2021).

Key:
[1] = system: Haemonchus contortus; experiment: In vitro assay 6: Haemonchus contortus (HAEMCO), larval mortality; details: Haemonchus contortus, 120 h, read-out: activity (percentage of larval mortality)
Method: In Vitro Assay 6: Haemonchus contortus (HAEMCO)
Solvent: dimethyl sulfoxide
Approximately 40 larvae of the red stomach worm (Haemonchus contortus) are transferred into a test tube containing compound solution.
After 5 days the percentage of larval mortality is recorded. 100% efficacy means all larvae are killed, 0% efficacy means no larvae are killed.

[2] = system: Dirofilaria immitis third-stage larvae; experiment: In vitro assay 4: Dirofilaria immitis (DIROIM L4), motility of larvae; details: 72 h
[3] = biological target: C. elegans Slo-1a (Caenorhabditis elegans, UniProt Q95V25); experiment: In vitro assay 1: C. elegans Slo-1a, action at a recombinant C. elegans CHO cell line (membrane potential measurement)
[4] = log P by HPLC on reversed phase columns (Method L0; [a] acidic, [b] neutral range)
Method: Calibration was done with straight-chain alkan-2-ones (with 3 to 16 carbon atoms) with known log P values (measurement of log P values using retention times with linear interpolation between successive alkanones). Lambda-max-values were determined using UV-spectra from 200 nm to 400 nm and the peak values of the chromatographic signals.

[5] = system: Litomosoides sigmodontis third-stage larvae; experiment: In vitro assay 7: Litomosoides sigmodontis L3 (LTMOSI), motility; details: 72 h, reduction of motility vs negative control, 72 h incubation
Method: In Vitro Assay 7: Litomosoides Siqmodontis L3 (LTMOSI)
10 Litomosoides sigmodontis third-stage larvae, which were freshly isolated from the pleural cavity of an infected rodent, were added to wells of a microtitre plate containing a nutrient medium and the test compound in DMSO. Compounds were tested in concentration-response assay in duplicate. Larvae exposed to DMSO and no test compounds were used as negative controls. Larvae were evaluated after 72 h of incubation with the compound. Efficacy was determined as the reduction of motility in comparison to the negative control. Based on the evaluation of a wide concentration range, concentration-response curves as well as ECso-values were calculated.

[6] = system: Cooperia curticei; experiment: In vitro assay 5: Cooperia curticei (COOPCU), larval mortality; details: 120 h, read-out: activity (percentage of larval mortality)
Method: In Vitro Assay 5: Cooperia curticei (COOPCU)
Solvent: Dimethyl Sulfoxide
Approximately 40 nematode larvae (Cooperia curticei) are transferred into a test tube containing the compound solution.
After 5 days percentage of larval mortality is recorded. 100% efficacy means all larvae are killed; 0% efficacy means no larvae are killed.

[7] = system: Nippostrongylus brasiliensis; experiment: In vitro assay 2: Nippostrongylus brasiliensis (NIPOBR), acetylcholine esterase readout; details: adult worms, read-out: activity (reduction of AChE compared to negative control); for inhibition at 1 µg/mL: 1 μg/ml (1 ppm); for inhibition at 10 µg/mL: 10 μg/ml (10 ppm)
Procedure, shortened: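 Adult worms were washed in saline with antibiotics/antimycotic, then incubated with compound at 10 μg/ml (10 ppm) or 1 μg/ml (1 ppm) final, from DMSO stock. Acetylcholine esterase activity in a medium aliquot, compared with a negative control, served as the anthelmintic readout.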

[8] = system: Dirofilaria immitis microfilariae; experiment: In vitro assay 3: Dirofilaria immitis microfilariae (DIROIM L1), motility; details: 72 h, reduction of motility vs negative control, 72 h incubation

Sequence of C. elegans Slo-1a (Q95V25 whole entry): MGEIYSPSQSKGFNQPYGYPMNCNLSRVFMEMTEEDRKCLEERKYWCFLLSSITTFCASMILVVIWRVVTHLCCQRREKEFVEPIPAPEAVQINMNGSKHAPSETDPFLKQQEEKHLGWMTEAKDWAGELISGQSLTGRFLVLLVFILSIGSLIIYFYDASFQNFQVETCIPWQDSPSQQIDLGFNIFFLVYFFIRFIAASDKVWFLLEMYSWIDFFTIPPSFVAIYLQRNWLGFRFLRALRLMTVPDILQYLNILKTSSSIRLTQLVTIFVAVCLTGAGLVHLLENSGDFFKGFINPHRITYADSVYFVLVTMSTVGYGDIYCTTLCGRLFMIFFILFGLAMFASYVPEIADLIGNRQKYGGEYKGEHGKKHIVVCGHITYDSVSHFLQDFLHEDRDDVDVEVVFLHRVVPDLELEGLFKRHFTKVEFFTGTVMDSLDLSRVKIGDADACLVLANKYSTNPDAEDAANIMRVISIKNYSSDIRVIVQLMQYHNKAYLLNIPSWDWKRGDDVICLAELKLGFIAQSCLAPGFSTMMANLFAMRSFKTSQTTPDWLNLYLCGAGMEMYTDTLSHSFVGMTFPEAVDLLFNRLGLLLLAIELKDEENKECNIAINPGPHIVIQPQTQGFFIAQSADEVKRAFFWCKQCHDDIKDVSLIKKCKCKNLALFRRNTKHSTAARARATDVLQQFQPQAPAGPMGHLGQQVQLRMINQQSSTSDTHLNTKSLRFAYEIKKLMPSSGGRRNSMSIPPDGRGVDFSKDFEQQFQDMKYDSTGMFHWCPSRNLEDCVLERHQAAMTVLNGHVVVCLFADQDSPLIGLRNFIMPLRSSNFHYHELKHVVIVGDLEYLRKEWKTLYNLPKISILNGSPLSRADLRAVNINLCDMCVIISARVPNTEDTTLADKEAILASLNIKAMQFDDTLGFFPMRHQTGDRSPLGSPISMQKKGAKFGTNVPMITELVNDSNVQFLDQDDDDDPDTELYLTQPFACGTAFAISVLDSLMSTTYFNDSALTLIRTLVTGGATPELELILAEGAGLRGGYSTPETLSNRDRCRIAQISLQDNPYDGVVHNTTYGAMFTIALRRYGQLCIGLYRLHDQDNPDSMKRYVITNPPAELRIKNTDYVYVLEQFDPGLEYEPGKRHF

Cc1nn2c(C(C)C)c(C(=O)N[C@H]3CCOc4ccccc43)cnc2c1-c1cc(Cl)cc(Cl)c1Cl [Example 234]
mortality at 20 ppm [1]: 90% | EC50 [2]: < 0.1 µg/mL | EC50 [3]: 1.26 nM | chromatographic logP [4]: 5.48 | EC50 [5]: < 0.1 µg/mL | mortality at 20 ppm [6]: 90% | inhibition at 1 µg/mL [7]: > 80% | inhibition at 10 µg/mL [7]: > 80% | EC50 [8]: < 0.1 µg/mL

Cc1nn2c(C(C)C)c(C(=O)N[C@H]3CCOc4ccccc43)cnc2c1-c1c(F)ccc(Cl)c1F [Example 255]
mortality at 20 ppm [1]: 90% | EC50 [2]: < 0.1 µg/mL | EC50 [3]: 1.58 nM | chromatographic logP [4]: 4.72 | EC50 [5]: < 0.1 µg/mL | mortality at 20 ppm [6]: 90% | inhibition at 1 µg/mL [7]: > 80% | inhibition at 10 µg/mL [7]: > 80% | EC50 [8]: < 0.1 µg/mL

COc1c(F)ccc(-c2c(C)nn3c(C(C)C)c(C(=O)N[C@H]4CCOc5ccccc54)cnc23)c1F [Example 192]
mortality at 20 ppm [1]: 90% | EC50 [2]: < 0.1 µg/mL | EC50 [3]: 0.398 nM | chromatographic logP [4]: 4.32 | EC50 [5]: < 0.1 µg/mL | mortality at 20 ppm [6]: 100% | inhibition at 1 µg/mL [7]: > 80% | inhibition at 10 µg/mL [7]: > 80% | EC50 [8]: < 0.1 µg/mL

Cc1nn2c(N3CCOCC3)c(C(=O)N[C@H]3CCOc4ccccc43)cnc2c1-c1cccc(Cl)c1Cl [Example 517]
mortality at 20 ppm [1]: 100% | EC50 [2]: < 0.1 µg/mL | EC50 [3]: 0.631 nM | chromatographic logP [4]: 3.51 | EC50 [5]: < 0.1 µg/mL | mortality at 20 ppm [6]: 100% | inhibition at 1 µg/mL [7]: > 80% | inhibition at 10 µg/mL [7]: > 80% | EC50 [8]: < 0.1 µg/mL

Cc1nn2c(C3CC3)c(C(=O)N[C@H]3CCOc4ccccc43)cnc2c1-c1cccc(F)c1Cl [Example 472]
mortality at 4 ppm [1]: 80% | EC50 [2]: < 0.1 µg/mL | EC50 [3]: 1.58 nM | chromatographic logP [4]: 3.72 | EC50 [5]: < 0.1 µg/mL | mortality at 20 ppm [6]: 80% | inhibition at 1 µg/mL [7]: > 80% | EC50 [8]: < 0.1 µg/mL

Cc1nn2c(C3CC3)c(C(=O)N[C@H]3CCc4ccccc43)cnc2c1-c1c(F)ccc(Cl)c1F [Example 436]
mortality at 20 ppm [1]: 80% | EC50 [2]: < 0.1 µg/mL | EC50 [3]: 1.58 nM | chromatographic logP [4]: 4.18 | EC50 [5]: < 0.1 µg/mL | mortality at 20 ppm [6]: 80% | inhibition at 1 µg/mL [7]: > 80% | inhibition at 10 µg/mL [7]: > 80% | EC50 [8]: < 0.1 µg/mL

Cc1nn2c(C(C)C)c(C(=O)N[C@H]3CCOc4ccccc43)cnc2c1-c1cccc2c1CCN2C [Example 461]
mortality at 20 ppm [1]: 80% | EC50 [2]: < 0.1 µg/mL | EC50 [3]: 2 nM | chromatographic logP [4]: 4.11 | EC50 [5]: < 0.1 µg/mL | mortality at 20 ppm [6]: 90% | inhibition at 1 µg/mL [7]: > 80% | inhibition at 10 µg/mL [7]: > 80% | EC50 [8]: < 1 µg/mL

COc1c(F)cc(F)c(-c2c(C)nn3c(N4CCOCC4)c(C(=O)N[C@H]4CCOc5ccccc54)cnc23)c1F [Example 531]
mortality at 20 ppm [1]: 100% | EC50 [2]: < 0.1 µg/mL | EC50 [3]: 1 nM | chromatographic logP [4]: 2.88 | EC50 [5]: < 0.1 µg/mL | mortality at 20 ppm [6]: 100% | inhibition at 1 µg/mL [7]: > 80% | EC50 [8]: < 0.1 µg/mL

Cc1nn2c(N(C)C)c(C(=O)N[C@H]3CCOc4ccccc43)cnc2c1-c1cccc(Cl)c1Cl [Example 518]
mortality at 20 ppm [1]: 100% | EC50 [2]: < 0.1 µg/mL | EC50 [3]: 1 nM | chromatographic logP [4]: 3.94 | EC50 [5]: < 0.1 µg/mL | mortality at 20 ppm [6]: 100% | inhibition at 1 µg/mL [7]: > 80% | inhibition at 10 µg/mL [7]: > 80% | EC50 [8]: < 0.1 µg/mL
